Tests used:
[1] = Highest frequency of moderate liver toxicity observed during clinical trials, expressed as a percentage. [column '% BIOL' in source]; settings: human
[2] = Highest frequency of acute liver toxicity observed during clinical trials, expressed as a percentage. [column '% AIGUE' in source]; settings: human
[3] = Times to onset, minimal and maximal, observed in the indexed observations. [column 'DELAI' in source]; settings: human
[4] = human, serum
[5] = human, serum; remark: listed apart in the source
[6] = human
[7] = human; remark: listed apart in the source
[8] = human; remark: listed apart in the source
[9] = human, serum, 4383 h
[10] = human; remark: listed apart in the source
[11] = human; remark: listed apart in the source
[12] = human; remark: listed apart in the source
[13] = human; remark: listed apart in the source
[14] = human; remark: listed apart in the source
[15] = human; remark: listed apart in the source
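Wherever Hepatotoxicity (association with vascular disease) is given: count of indexed literature references reporting vascular liver injury in humans, e.g. peliosis hepatitis, hepatic veno-occlusive disease or Budd-Chiari syndrome.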
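Wherever Hepatotoxicity (benign tumour) is given: value is a count of indexed literature references citing a benign tumour confirmed by histopathology.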
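Wherever Hepatotoxicity (choleostasis) is given: human cholestatic liver injury, shown by histopathology or by peak ALT or AST elevation over alkaline phosphatase ratio below 2, value counts indexed literature reports.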
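Wherever Hepatotoxicity (chronic liver disease) is given: chronic liver injury confirmed by histopathology or persistently raised serum aminotransferase activity beyond 6 months, value given as the count of indexed literature references.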
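Wherever Hepatotoxicity (cirrhosis) is given: value is a count of indexed literature references reporting cirrhosis confirmed by histopathology.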
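Wherever Hepatotoxicity (cytolytic) is given: human cytolytic liver injury, shown by histopathology or by a ratio above 5 of peak ALT or AST elevation to alkaline phosphatase elevation, value counts indexed references.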
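Wherever Hepatotoxicity (granulomatous hepatitis) is given: value is a count of indexed literature references reporting granulomatous liver disease confirmed by histopathology.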
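Wherever Hepatotoxicity (malignant tumour) is given: malignant tumour confirmed by histopathology, value gives the count of indexed literature references reporting it.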
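Wherever Hepatotoxicity (severe hepatitis) is given: human clinical data: severe hepatitis, meaning potentially life-threatening liver failure or clinically observed cases, the value counts how many indexed literature references report it.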
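Wherever Hepatotoxicity (steatosis) is given: steatosis confirmed by histopathology, value is the count of indexed references.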

Row | Structure (SMILES) | Hepatotoxicity (moderate) [1] [%] | Hepatotoxicity (acute) [2] [%] | Hepatotoxicity (time to onset) [3] | Hepatotoxicity (moderate) [4] | Hepatotoxicity (acute) [5] | Hepatotoxicity (cytolytic) [6] | Hepatotoxicity (choleostasis) [7] | Hepatotoxicity (severe hepatitis) [8] | Hepatotoxicity (chronic liver disease) [9] | Hepatotoxicity (cirrhosis) [10] | Hepatotoxicity (granulomatous hepatitis) [11] | Hepatotoxicity (association with vascular disease) [12] | Hepatotoxicity (steatosis) [13] | Hepatotoxicity (malignant tumour) [14] | Hepatotoxicity (benign tumour) [15] | other results
1 | Cc1ccccc1N1C(=O)c2cc(S(N)(=O)=O)c(Cl)cc2NC1C (stereo not given) [METOLAZONE] | 0 | 0 | 8 days - 3 months | 0 | 2 | 0 | 1 | 1 | 0 | 0 | 1 | 0 | 0 | 0 | 0 | 
2 | CS(=O)(=O)c1ccc2c(c1)N(CCCN1CCC(C(N)=O)CC1)c1ccccc1S2 [METOPIMAZINE] | 0 | 0 | 1 month | 0 | 1 | 1 | 1 | 0 | 0 | 0 | 0 | 0 | 0 | 0 | 0 | 
3 | CC1(C)S[C@@H]2[C@H](NC(=O)[C@H](NC(=O)N3CCN(S(C)(=O)=O)C3=O)c3ccccc3)C(=O)N2[C@H]1C(=O)O [MEZLOCILLIN] |  |  | 2 weeks - 3 weeks | 6 | 1 |  |  |  | 0 | 0 |  | 0 | 0 | 0 | 0 | Hepatotoxicity (moderate) ([1]; Liver): 25%; Hepatotoxicity (acute) ([2]; Liver): 0%; Hepatotoxicity (cytolytic) ([6]; Liver): 0; Hepatotoxicity (choleostasis) ([7]; Liver): 1; Hepatotoxicity (severe hepatitis) ([8]; Liver): 0; Hepatotoxicity (granulomatous hepatitis) ([11]; Liver): 0
4 | CCC(=O)O[C@@H]1CC(=O)O[C@H](C)C/C=C/C=C/[C@H](O)[C@H](C)C[C@H](CC=O)[C@H](O[C@@H]2O[C@H](C)[C@@H](O[C@H]3C[C@@](C)(O)[C@@H](OC(=O)CC)[C@H](C)O3)[C@H](N(C)C)[C@H]2O)[C@H]1OC [MIDECAMYCIN] | 2.3 | 0 | 1 days | 3 | 1 | 1 | 0 | 1 | 0 | 0 | 0 | 0 | 0 | 0 | 0 | 
5 | CC#C[C@]1(O)CC[C@H]2[C@@H]3CCC4=CC(=O)CCC4=C3[C@@H](c3ccc(N(C)C)cc3)C[C@@]21C [MIFEPRISTONE] | 14.3 | 0 | 3 months - 5 months | 2 | 1 | 1 | 0 | 0 | 0 | 0 | 0 | 0 | 0 | 0 | 0 | 
6 | CCCCCNCC(N)=O [MILACEMIDE] | 70 | 0 | 3 weeks - 4 weeks | 3 | 1 | 1 | 1 | 0 | 0 | 0 | 0 | 0 | 0 | 0 | 0 | 
7 | CCCCCCCCCCCCCCCCOP(=O)([O-])OCC[N+](C)(C)C [MILTEFOSINE] | 55 | 2.2 | 2 weeks | 5 | 3 | 3 | 0 | 0 | 0 | 0 | 0 | 0 | 0 | 0 | 0 | 
8 | CN1CCN2c3ncccc3Cc3ccccc3C2C1 (stereo not given) [MIRTAZAPINE] | 1 | 0 | 1 year - 3 years | 2 | 1 | 1 | 0 | 1 | 0 | 0 | 0 | 0 | 1 | 0 | 0 | 
9 | CN(c1nccc(=O)[nH]1)C1CCN(c2nc3ccccc3n2Cc2ccc(F)cc2)CC1 [MIZOLASTINE] | 0 | 0 | 2 months | 0 | 2 | 2 | 0 | 0 | 0 | 0 | 0 | 0 | 0 | 0 | 0 | 
10 | O=C(NCCN1CCOCC1)c1ccc(Cl)cc1 [MOCLOBEMIDE] | 0 | 0 | 1 week - 9 days | 1 | 1 | 0 | 1 | 1 | 0 | 0 | 0 | 0 | 0 | 0 | 0 | 
11 | CCCCC1C(=O)NN(c2ccccc2)C1=O (stereo not given) [MOFEBUTAZONE] | 0 | 0 | 2 years | 0 | 1 | 1 | 0 | 0 | 0 | 1 | 0 | 0 | 0 | 0 | 0 | 
12 | CCOC(=O)Nc1ccc2c(c1)N(C(=O)CCN1CCOCC1)c1ccccc1S2 [MORICIZINE] | 1.2 | 0 | 6 days | 4 | 0 | 0 | 0 | 0 | 0 | 0 | 0 | 0 | 0 | 0 | 0 | 
13 | O=C(NCN1CCOCC1)c1cnccn1 [MORINAMIDE] | 1.8 | 0.5 | 4 months | 2 | 2 | 2 | 0 | 1 | 0 | 0 | 0 | 0 | 0 | 0 | 0 | 
14 | COc1nc(C)nc(Cl)c1N=C1NCCN1 [MOXONIDINE] |  |  | 9 months | 0 | 1 | 1 | 1 |  | 0 | 0 | 0 | 0 | 0 | 0 | 0 | Hepatotoxicity (moderate) ([1]; Liver): 0%; Hepatotoxicity (acute) ([2]; Liver): 0%; Hepatotoxicity (severe hepatitis) ([8]; Liver): 1

From ChEMBL document CHEMBL3137667, “[Drug-induced liver injury; fourteenth updated edition of the bibliographic database of liver injuries and related drugs]” (Gastroenterol Clin Biol, 2004)
